We go through two compounds from US7973033B2, “Multi-cyclic cinnamide derivatives” (Eisai R&D Management Co., Ltd., priority 2006, dated 2011).

pIC50: −log10 of the molar value.

The subject of the assay is Aβ 42 production. Kind of assay: Quantification of Aβ Peptide in Culture of Neurons from Rat Fetus Brain. The following applies: Neuron, 72 h; rat primary neuronal culture (cerebral cortex, embryonic day 18 Wistar rats); medium collected three days after addition of the compound; Aβ ELISA; read-out: Effect of reducing Aβ 42 production IC50. In kind it is cell-based. The method, then: Quantification of Aβ Peptide in Culture of Neurons from Rat Fetus Brain
(1) Rat Primary Neuronal Culture
Primary neuronal cultures were prepared from the cerebral cortex of embryonic day 18 Wistar rats (Charles River Japan, Yokohama, Japan). Specifically, the embryos were aseptically removed from pregnant rats under ether anesthesia. The brain was isolated from the embryo and immersed in an ice-cold L-15 medium (Invitrogen Corp. Cat #11415-064, Carlsbad, Calif., USA, or SIGMA L1518, for example). The cerebral cortex was collected from the isolated brain under a stereoscopic microscope. The cerebral cortex fragments collected were enzymatically treated in an enzyme solution containing 0.25% trypsin (Invitrogen Corp. Cat #15050-065, Carlsbad, Calif., USA) and 0.01% DNase (Sigma D5025, St. Louis, Mo., USA) at 37° C. for 30 minutes to disperse the cells. Here, the enzymatic reaction was stopped by adding inactivated horse serum to the solution. The enzymatically treated solution was centrifuged at 1,500 rpm for five minutes to remove the supernatant. 5 to 10 ml of a medium was added to the resulting cell mass. Neurobasal medium (Invitrogen Corp. Cat #21103-049, Carlsbad, Calif., USA) supplemented with 2% B27 supplement (Invitrogen Corp. Cat #17504-044, Carlsbad, Calif., USA), 25 μM 2-mercaptoethanol (2-ME, WAKO Cat #139-06861, Osaka, Japan), 0.5 mM L-glutamine (Invitrogen Corp. Cat #25030-081, Carlsbad, Calif., USA), and Antibiotics-Antimycotics (Invitrogen Corp. Cat #15240-062, Carlsbad, Calif., USA) was used as the medium (Neurobasal/B27/2-ME). However, the above Neurobasal medium not supplemented with 2-ME (Neurobasal/B27) was used for the assay. The cells were redispersed by mild pipetting of the cell mass to which the medium was added. The cell dispersion was filtered through a 40-μm nylon mesh (Cell Strainer, Cat #35-2340, Becton Dickinson Labware, Franklin Lakes, N.J., USA) to remove the remaining cell mass, and thus a neuronal cell suspension was obtained. The neuronal cell suspension was diluted with the medium and then plated in a volume of 100 μl/well at an initial cell density of 5×10^5 cells/cm^2 in a 96-well polystyrene culture plate pre-coated with poly-L or D-lysine (Falcon Cat #35-3075, Becton Dickinson Labware, Franklin Lakes, N.J., USA coated with poly-L-lysine using the method shown below, or BIOCOAT™ cell environments Poly-D-lysine cell ware 96-well plate, Cat #35-6461, Becton Dickinson Labware, Franklin Lakes, N.J., USA). Poly-L-lysine coating was carried out as follows. 100 μg/ml of a poly-L-lysine (SIGMA P2636, St. Louis, Mo., USA) solution was aseptically prepared with a 0.15 M borate buffer (pH 8.5). 100 μl/well of the solution was added to the 96-well polystyrene culture plate and incubated at room temperature for one or more hours or at 4° C. overnight or longer. The coated 96-well polystyrene culture plate was washed with sterile water four or more times, and then dried or rinsed with, for example, sterile PBS or medium, and used for cell plating. The plated cells were cultured in the culture plate at 37° C. in 5% CO2-95% air for one day. Then, the total amount of the medium was replaced with a fresh Neurobasal™/B27/2-ME medium, and then the cells were cultured for further three days.
The drug was added to the culture plate on Day 4 of culture as follows. The total amount of the medium was removed from the wells, and 180 μl/well of Neurobasal medium not containing 2-ME and containing 2% B-27 (Neurobasal/B27) was added thereto. A solution of the test compound in dimethyl sulfoxide (hereinafter abbreviated as DMSO) was diluted with Neurobasal/B27 at 10-fold of the final concentration. 20 μl/well of the dilution was added to and sufficiently mixed with the medium. The final DMSO concentration was 1% or less. Only DMSO was added to the control group.
The cells were cultured for three days after addition of the compound, and the total amount of the medium was collected. […]
For orientation: ELISA stands for enzyme-linked immunosorbent assay.

Usually pIC50 stands for the negative decadic logarithm of the IC50, by convention in mol/L. For `COc1cc(/C=C/c2nnc(C(C)c3ccc(F)cc3)[nH]2)ccc1-n1cnc(C)c1` (racemic) [Example 31, 3-[1-(4-fluorophenyl)ethyl]-5-{(E)-2-[3-methoxy-4-(4-methyl-1H-imidazol-1-yl)phenyl]vinyl}-4H-[1,2,4]triazole], the pIC50 is 7.48. Turning to `COc1cc(/C=C2\CCCn3c2nc(CO)c3-c2ccc(F)cc2)ccc1-n1cnc(C)c1` [Example 23, {3-(4-fluorophenyl)-8-{1-[3-methoxy-4-(4-methyl-1H-imidazol-1-yl)phenyl]-(E)-methylidene}-5,6,7,8-tetrahydroimidazo[1,2-a]pyridin-2-yl}methanol], the negative-log IC50 (pIC50) was 7.22.
